One block for each molecule: values may come before it.
Assays:
Caco-2 [1] = assay: Flow cytometric annexin V/PI analysis of apoptosis in Caco-2; format: cell-based, human; conditions: Caco-2, at 3 nM, 72 h, mean ± SEM
MDA-MB 231 [2] = assay: MTT antiproliferative evaluation on MDA-MB 231 cells; format: cell-based; conditions: Homo sapiens, MDA-MB-231, 72 h, read-out: IC50 MDA-MB 231
MDA-MB 231 [3] = assay: Flow cytometric annexin V/PI analysis of apoptosis in MDA-MB 231; format: cell-based, human; conditions: MDA-MB 231, at 3 nM, 72 h, mean ± SEM
MMP-10 = MMP-10 (Homo sapiens, UniProt P09238); assay: MMP-10 Assay Kit; conditions: read-out: IC50 MMP-10
MMP-10, sequence (P09238 99-476): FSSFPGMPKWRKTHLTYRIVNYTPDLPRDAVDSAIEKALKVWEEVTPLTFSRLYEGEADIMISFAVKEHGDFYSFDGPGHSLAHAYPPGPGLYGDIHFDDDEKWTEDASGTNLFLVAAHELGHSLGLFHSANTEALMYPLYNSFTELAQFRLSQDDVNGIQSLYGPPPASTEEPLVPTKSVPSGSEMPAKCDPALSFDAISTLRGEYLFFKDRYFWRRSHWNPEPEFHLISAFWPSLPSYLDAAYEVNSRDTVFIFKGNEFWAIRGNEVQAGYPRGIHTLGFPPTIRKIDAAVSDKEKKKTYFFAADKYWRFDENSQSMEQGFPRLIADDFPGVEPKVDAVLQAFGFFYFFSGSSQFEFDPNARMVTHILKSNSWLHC

MMP-7 = target: T1, MMP-7 (Homo sapiens, UniProt P09237); assay: MMP-7 Inhibitor Screening Assay Kit; conditions: read-out: IC50 MMP-7
T1 sequence (P09237 95-267): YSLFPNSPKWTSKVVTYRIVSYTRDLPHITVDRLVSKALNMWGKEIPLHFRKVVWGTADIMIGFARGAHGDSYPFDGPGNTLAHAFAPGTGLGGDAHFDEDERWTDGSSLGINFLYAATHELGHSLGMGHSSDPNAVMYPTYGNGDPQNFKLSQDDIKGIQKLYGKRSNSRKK

MMP-2 = target: T2, MMP-2 (Homo sapiens, UniProt P08253); assay: MMP-2 Inhibitor Screening Assay Kit; format: biochemical; conditions: read-out: IC50 MMP-2
T2 sequence (P08253 110-660): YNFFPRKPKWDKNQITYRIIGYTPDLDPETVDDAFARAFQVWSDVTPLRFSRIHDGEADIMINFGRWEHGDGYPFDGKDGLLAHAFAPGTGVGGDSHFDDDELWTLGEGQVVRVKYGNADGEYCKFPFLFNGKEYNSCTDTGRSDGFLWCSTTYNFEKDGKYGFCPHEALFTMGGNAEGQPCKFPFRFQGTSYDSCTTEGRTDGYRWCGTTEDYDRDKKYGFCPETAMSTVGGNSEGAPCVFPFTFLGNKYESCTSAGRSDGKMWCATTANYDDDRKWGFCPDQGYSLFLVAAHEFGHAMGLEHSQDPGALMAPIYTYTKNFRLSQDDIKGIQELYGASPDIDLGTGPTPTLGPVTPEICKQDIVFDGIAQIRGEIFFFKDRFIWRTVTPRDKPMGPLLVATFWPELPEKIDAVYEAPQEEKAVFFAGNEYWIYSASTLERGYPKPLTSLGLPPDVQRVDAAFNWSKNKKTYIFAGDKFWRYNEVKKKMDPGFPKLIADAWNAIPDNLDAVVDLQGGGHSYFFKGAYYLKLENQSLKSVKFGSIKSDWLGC

MMP-9 = MMP-9 (Homo sapiens, UniProt P14780); assay: MMP-9 Colorimetric Assay Kit for Drug Discovery; format: biochemical; conditions: read-out: IC50 MMP-9
MMP-9, sequence (P14780 94-707): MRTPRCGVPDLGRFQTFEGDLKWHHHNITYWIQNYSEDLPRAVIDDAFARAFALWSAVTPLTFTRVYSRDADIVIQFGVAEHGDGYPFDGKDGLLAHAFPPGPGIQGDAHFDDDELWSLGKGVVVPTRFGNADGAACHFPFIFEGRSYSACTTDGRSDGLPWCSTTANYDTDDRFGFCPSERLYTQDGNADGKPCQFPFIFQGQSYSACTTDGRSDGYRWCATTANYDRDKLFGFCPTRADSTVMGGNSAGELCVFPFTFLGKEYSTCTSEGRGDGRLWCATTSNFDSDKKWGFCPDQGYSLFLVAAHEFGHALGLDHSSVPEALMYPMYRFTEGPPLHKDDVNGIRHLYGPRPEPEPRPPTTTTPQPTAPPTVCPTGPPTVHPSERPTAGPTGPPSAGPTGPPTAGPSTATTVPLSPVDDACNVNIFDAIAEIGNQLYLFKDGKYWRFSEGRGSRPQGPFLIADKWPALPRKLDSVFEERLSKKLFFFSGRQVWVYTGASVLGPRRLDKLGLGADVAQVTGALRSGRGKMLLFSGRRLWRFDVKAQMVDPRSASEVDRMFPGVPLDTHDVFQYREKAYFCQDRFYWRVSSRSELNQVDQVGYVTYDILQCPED

MMP-13 = MMP-13 (Homo sapiens, UniProt P45452); assay: MMP-13 Inhibitor Screening Assay Kit; conditions: read-out: IC50 MMP-13
Caco-2 [4] = assay: MTT antiproliferative evaluation on Caco-2 cells; format: cell-based; conditions: Homo sapiens, Caco-2, 72 h, read-out: IC50 Caco-2
tumor growth = conditions: mouse models; cited from earlier work

Molecule: COc1cccc2c1C(=O)c1c(O)c3c(c(O)c1C2=O)C[C@@](O)(C(=O)CO)C[C@@H]3O[C@H]1C[C@H](N)[C@H](O)[C@H](C)O1 [DOX, doxorubicin]
total % of the apoptotic cell population, Caco-2 (Caco-2 [1]): 31.7 ± 2.7%
total % of the apoptotic cell population, Caco-2 (Caco-2 [1]; listed as doxorubicin): < 32%
IC50 (MDA-MB 231 [2]): 10.7 ± 0.3 nM
total % of the apoptotic cell population, MDA-MBA 231 (MDA-MB 231 [3]): 19.9 ± 1.6%
total % of the apoptotic cell population, MDA-MBA 231 (MDA-MB 231 [3]; listed as doxorubicin): < 32%

Molecule: COc1ccc(S(=O)(=O)N(CC(=O)NO)CC(C)C)cc1 [NNGH, N-isobutyl-N-(4-methoxyphenylsulfonyl)glycyl hydroxamic acid]
IC50 (MMP-10): 101 nM
IC50 (MMP-7): 240 nM
IC50 (MMP-2): 77 nM
IC50 (MMP-9): 73 nM
IC50 (MMP-13): 360 nM

B1: andecaliximab (antibody, chains of the INN, looked up, V domains shown)
VH: QVQLQESGPGLVKPSETLSLTCTVSGFSLLSYGVHWVRQPPGKGLEWLGVIWTGGTTNYNSALMSRFTISKDDSKNTVYLKMNSLKTEDTAIYYCARYYYGMDYWGQGTLVTVSS
VL: DIQMTQSPSSLSASVGDRVTITCKASQDVRNTVAWYQQKPGKAPKLLIYSSSYRNTGVPDRFSGSGSGTDFTLTISSLQAEDVAVYYCQQHYITPYTFGGGTKVEIK
tumor growth and metastases incidence (tumor growth): reduced the tumor growth and metastases incidence

The next lines start with the values.

IC50 (Caco-2 [4]): 38.4 ± 1.6 nM
IC50 (MDA-MB 231 [2]): 94.4 ± 10.6 nM
Molecule: O=C(NO)c1ccc(Nc2nc(Nc3ccc(C(=O)NO)cc3)nc(Nc3ccc(C(=O)NO)cc3)n2)cc1 [compound 13, 4,4′,4′′-((1,3,5-Triazine-2,4,6-triyl)tris(azanediyl))tris(N-hydroxybenzamide)]

IC50 (Caco-2 [4]): 52.8 ± 3.8 nM
IC50 (MDA-MB 231 [2]): 70.9 ± 3.7 nM
Molecule: O=C(NNc1nc(O)nc(O)n1)c1ccc(Nc2nc(Nc3ccc(C(=O)NNc4nc(O)nc(O)n4)cc3)nc(Nc3ccc(C(=O)NNc4nc(O)nc(O)n4)cc3)n2)cc1 [compound 12, 4,4′,4′′-((1,3,5-Triazine-2,4,6-triyl)tris(azanediyl))tris(N′-(4,6-dihydroxy-1,3,5-triazin-2-yl)benzohydrazide)]
